A word on the Ki: it is a dissociation constant, usually derived from enzyme kinetics or from competition with a known ligand. By CL/F is commonly meant clearance divided by bioavailability, as obtained after extravascular dosing. One may read the Tmax as the time from dosing to the highest level. By half-life is commonly meant how long it takes for the measured level to halve.

This is an account of results in US12723063B2, “GIPR-agonist compounds” (Eli Lilly and Company, priority 2019, dated 2026).

In one series the target is T1, human GLP-1R (Homo sapiens, UniProt P43220).
T1 construct: expressed in transfected cells; crude membranes
The series can be described thus: [125I]-GLP-1 binding, SPA with WGA beads, 0.1% bacitracin. The following applies: geometric mean, read-out: hGLP1R Ki. The method in brief: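 Binding buffer was 25 mM HEPES pH 7.4 with 2.5 mM CaCl2, 1 mM MgCl2, 0.1% (w/v) bacitracin, 0.003% Tween-20 and EDTA-free protease inhibitors. Four-parameter regression gave IC50, converted to Ki (geometric mean, SEM, n independent days).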

The target of a further series is T2, human GcgR (Homo sapiens, UniProt P47871).
T2 construct: expressed in transfected cells; crude membranes
Briefly: [125I]-Glucagon binding, SPA with WGA beads, 0.1% bacitracin. The settings on record: geometric mean, read-out: hGcgR Ki. The method in brief: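 SPA competition binding with WGA beads on crude membranes from HEK293 cells stably expressing hGcgR. Buffer: 25 mM HEPES pH 7.4, 2.5 mM CaCl2, 1 mM MgCl2, 0.1% bacitracin, 0.003% Tween-20; 10-point 3-fold dilutions, NSB with 1 μM Gcg.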

A short description of series [1]: Pharmacokinetics in male cynomolgus monkeys, single subcutaneous administration. Type of series: in vivo, cynomolgus monkey. The settings on record: 50 nmol/kg single SC, mean n = 2; for CL/F / Tmax / half-life: cynomolgus monkey, plasma. The method, then:
The pharmacokinetics of select Examples are evaluated following a single subcutaneous administration of 50 nmol/kg to male cynomolgus monkeys. Blood samples are collected over 504 hours and resulting individual plasma concentrations are used to calculate pharmacokinetic parameters. Peptide plasma (K3 EDTA) concentrations are determined using a qualified LC/MS method that measured the intact mass of the compound. Each peptide and an analog as an internal standard are extracted from 100% cynomolgus monkey plasma using a protein precipitation method. Instruments are combined for LC/MS detection.

The target of the next series is T3, human GIPR (Homo sapiens, UniProt P48546).
T3 construct: expressed in transfected cells; crude membranes
T3 sequence (P48546 22-466): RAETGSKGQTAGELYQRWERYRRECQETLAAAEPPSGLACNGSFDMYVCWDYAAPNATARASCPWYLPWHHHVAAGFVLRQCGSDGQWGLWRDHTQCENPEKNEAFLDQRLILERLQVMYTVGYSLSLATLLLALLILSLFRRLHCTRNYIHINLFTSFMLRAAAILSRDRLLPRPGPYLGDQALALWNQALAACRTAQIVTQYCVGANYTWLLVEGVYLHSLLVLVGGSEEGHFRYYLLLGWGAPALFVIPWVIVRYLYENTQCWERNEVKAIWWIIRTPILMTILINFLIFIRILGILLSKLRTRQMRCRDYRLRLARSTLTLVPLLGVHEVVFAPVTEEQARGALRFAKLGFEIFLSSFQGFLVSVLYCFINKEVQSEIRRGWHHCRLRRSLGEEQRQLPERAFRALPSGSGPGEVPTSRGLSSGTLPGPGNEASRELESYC
The series can be described thus: [125I]-GIP binding, SPA with WGA beads, 0.1% bacitracin. The following applies: geometric mean, read-out: hGIPR Ki. The method in brief: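 Ki values are geometric means (SEM, n independent days), derived from four-parameter nonlinear regression of IC50. Membranes came from hGIPR-expressing CHO cells.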

T1 sequence (P43220 24-463): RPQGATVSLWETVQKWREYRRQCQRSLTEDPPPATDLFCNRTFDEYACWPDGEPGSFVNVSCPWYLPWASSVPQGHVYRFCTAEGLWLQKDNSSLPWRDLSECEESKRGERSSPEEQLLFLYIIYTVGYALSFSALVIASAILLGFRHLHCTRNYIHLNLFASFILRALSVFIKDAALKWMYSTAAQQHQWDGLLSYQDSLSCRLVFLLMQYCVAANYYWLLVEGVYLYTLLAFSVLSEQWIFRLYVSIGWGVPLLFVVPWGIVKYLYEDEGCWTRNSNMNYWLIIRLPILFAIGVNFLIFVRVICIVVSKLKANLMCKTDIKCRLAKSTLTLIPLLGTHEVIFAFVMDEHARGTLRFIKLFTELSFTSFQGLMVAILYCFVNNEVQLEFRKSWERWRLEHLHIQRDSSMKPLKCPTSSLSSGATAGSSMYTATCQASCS
T2 sequence (P47871 26-477): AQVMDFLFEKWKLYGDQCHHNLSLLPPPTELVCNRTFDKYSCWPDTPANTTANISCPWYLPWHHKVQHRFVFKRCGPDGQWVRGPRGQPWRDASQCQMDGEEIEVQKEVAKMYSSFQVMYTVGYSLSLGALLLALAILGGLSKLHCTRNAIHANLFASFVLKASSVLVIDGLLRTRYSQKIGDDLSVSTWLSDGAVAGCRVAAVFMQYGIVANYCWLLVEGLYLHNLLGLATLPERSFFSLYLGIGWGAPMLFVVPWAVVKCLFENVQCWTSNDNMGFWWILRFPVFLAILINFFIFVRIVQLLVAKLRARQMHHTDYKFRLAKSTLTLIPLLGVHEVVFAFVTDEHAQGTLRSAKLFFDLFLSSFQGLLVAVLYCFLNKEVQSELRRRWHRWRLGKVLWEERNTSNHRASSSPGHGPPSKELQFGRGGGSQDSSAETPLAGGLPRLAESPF

On to `CC[C@H](C)[C@H](NC(=O)[C@H](CCCN)NC(=O)[C@H](CC(=O)O)NC(=O)[C@H](CC(C)C)NC(=O)[C@](C)(CC(C)C)NC(=O)[C@@H](NC(=O)[C@H](CO)NC(=O)[C@H](Cc1ccc(O)cc1)NC(=O)[C@H](CC(=O)O)NC(=O)[C@H](CO)NC(=O)[C@@H](NC(=O)[C@H](Cc1ccccc1)NC(=O)[C@@H](NC(=O)CNC(=O)[C@H](CCC(=O)O)NC(=O)C(C)(C)NC(=O)[C@@H](N)Cc1ccc(O)cc1)[C@@H](C)O)[C@@H](C)CC)[C@@H](C)CC)C(=O)N[C@@H](Cc1c[nH]cn1)C(=O)N[C@@H](CCC(N)=O)C(=O)NC(C)(C)C(=O)N[C@@H](CC(=O)O)C(=O)N[C@@H](Cc1ccccc1)C(=O)N[C@H](C(=O)N[C@@H](CCC(=O)O)C(=O)N[C@@H](Cc1ccc(O)cc1)C(=O)N[C@@H](CCCCNC(=O)COCCOCCNC(=O)COCCOCCNC(=O)CC[C@H](NC(=O)CCCCCCCCCCCCCCCCCCC(=O)O)C(=O)O)C(=O)N[C@@H](CC(C)C)C(=O)N[C@@H](CCC(=O)O)C(=O)NCC(=O)NCC(=O)N1CCC[C@H]1C(=O)N[C@@H](CO)C(=O)N[C@@H](CO)C(=O)NCC(=O)N[C@@H](C)C(=O)N1CCC[C@H]1C(=O)N1CCC[C@H]1C(=O)N1CCC[C@H]1C(=O)N[C@@H](CO)C(N)=O)C(C)C` [Example 6], for which the Ki on human GLP-1R was determined as 571 nM. On human GcgR, the Ki turned out to be 453 nM. For the same molecule, in series [1], the AUCInf/Dose is 1382 hr*kg*nmol/L/nmol, the Cmax/Dose is listed as 7.83 kg*nmol/L/nmol, the CL/F is 18.5 mL/day/kg and the Tmax was 6 h. The molecule further showed a half-life in series [1] of 129 h. Also, the Ki at human GIPR was found to be 0.104 nM.
`CC[C@H](C)[C@H](NC(=O)[C@H](CCCN)NC(=O)[C@H](CC(=O)O)NC(=O)[C@H](CC(C)C)NC(=O)[C@](C)(CC(C)C)NC(=O)[C@@H](NC(=O)[C@H](CO)NC(=O)[C@H](Cc1ccc(O)cc1)NC(=O)[C@H](CC(=O)O)NC(=O)[C@H](CO)NC(=O)[C@@H](NC(=O)[C@H](Cc1ccccc1)NC(=O)[C@@H](NC(=O)CNC(=O)[C@H](CCC(=O)O)NC(=O)C(C)(C)NC(=O)[C@@H](N)Cc1ccc(O)cc1)[C@@H](C)O)[C@@H](C)CC)[C@@H](C)CC)C(=O)N[C@@H](Cc1c[nH]cn1)C(=O)N[C@@H](CCC(N)=O)C(=O)NC(C)(C)C(=O)N[C@@H](CCC(=O)O)C(=O)N[C@@H](Cc1ccccc1)C(=O)N[C@H](C(=O)N[C@H](CCC(=O)O)C(=O)N[C@@H](Cc1ccc(O)cc1)C(=O)N[C@@H](CCCCNC(=O)COCCOCCNC(=O)COCCOCCNC(=O)CC[C@H](NC(=O)CCCCCCCCCCCCCCCCC(=O)O)C(=O)O)C(=O)N[C@@H](CC(C)C)C(=O)N[C@@H](CCC(=O)O)C(=O)NCC(=O)NCC(=O)N1CCC[C@H]1C(=O)N[C@@H](CO)C(=O)N[C@@H](CO)C(=O)NCC(=O)N[C@@H](C)C(=O)N1CCC[C@H]1C(=O)N1CCC[C@H]1C(=O)N1CCC[C@H]1C(=O)N[C@@H](CO)C(N)=O)C(C)C` [Example 7]: the Ki at human GLP-1R was over 913 nM. In addition, the Ki on human GcgR is over 961 nM. Besides, in series [1], the AUCInf/Dose is reported as 1603 hr*kg*nmol/L/nmol, the Cmax/Dose was determined as 10.1 kg*nmol/L/nmol, the CL/F was 15.1 mL/day/kg and the Tmax stood at 9 h. This molecule also showed a half-life in series [1] of 109 h. Further, the Ki at human GIPR came out at 0.193 nM.
